Results published in patent US7166622B2, “Substituted phenylsulfonamide inhibitors of beta amyloid production” (Wyeth, priority 2002, dated 2007).

Key:
CHO-K1 cells = assay: Toxicity in RRA (loss of luciferase signal); settings: Conc 20 μg/ml; 1=non-toxic, 0=toxic; toxicity = loss of signal (<0.75 fold increase)
Protocol: The beta amyloid inhibitory activity of the compounds of the present invention was determined using the Repressor Release Assay (RRA).
“Fold Increase” refers to the amount of luciferase activity (measured in relative light units) over diluent control. “SEM” refers to the standard error of the mean for fold increase.

beta amyloid production = assay: Repressor Release Assay (RRA); type: cell-based; settings: Conc 20 μg/ml; for fold induction at 20 µg/mL / APPI Fold Increase: luciferase activity (RLU) over diluent control; for fold induction at 20 µg/mL: read-out: APPI Fold Increase; for APPI % of Example #98: relative to Example 98
Summary of the method: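 Read-out is luciferase luminescence (RLU) after 36-48 h duplicate compound exposure of transfected CHO-K1 cells. These cells carry transiently introduced APP-lacI and pRSVO-luc DNA. Diluent control was 25 mM Hepes/1% DMSO; toxicity recorded as binary score (1 non-toxic, 0 toxic).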

| Structure (SMILES) | (%)APPI Toxicity (CHO-K1 cells) | fold induction at 20 µg/mL (beta amyloid production) | APPI Fold Increase (beta amyloid production) | APPI % of Example #98 (beta amyloid production) |
| --- | --- | --- | --- | --- |
| CC(C)C[C@@H](c1ccccc1)[C@@H](CO)NS(=O)(=O)c1ccc(Cl)cc1 [Example 64, 4-chloro-N-[(1S,2S)-1-(hydroxymethyl)-4-methyl-2-phenylpentyl]benzenesulfonamide] | 1 (1=non-toxic) | 1.7 | – | – |
| CCCCCC[C@@H](c1ccccc1)[C@@H](CO)NS(=O)(=O)c1ccc(Cl)cc1 [Example 65, 4-chloro-N-[(1S,2S)-1-(hydroxymethyl)-2-phenyloctyl]benzenesulfonamide] | 1 (1=non-toxic) | 1.9 | – | – |
| CC[C@@H](c1ccco1)[C@@H](CO)NS(=O)(=O)c1ccc(Cl)cc1 [Example 66, 4-chloro -N-[(1S,2R)-2-(2-furyl)-1-(hydroxymethyl)butyl]benzenesulfonamide] | 1 (1=non-toxic) | 5.5 | – | – |
| CC(C)C[C@@H](c1ccco1)[C@@H](CO)NS(=O)(=O)c1ccc(Cl)cc1 [Example 67, 4-chloro -N-[(1S,2R)-2-(2-furyl)-1-(hydroxymethyl)-4-methylpentyl]benzenesulfonamide] | 1 (1=non-toxic) | 3.9 | – | – |
| CCCCCC[C@@H](c1ccco1)[C@@H](CO)NS(=O)(=O)c1ccc(Cl)cc1 [Example 68, 4-chloro-N-[(1S,2R)-2-(2-furyl)-1-(hydroxymethyl)octyl]benzenesulfonamide] | 1 (1=non-toxic) | 2 | – | – |
| CC(C)[C@H](C)[C@@H](CO)NS(=O)(=O)c1ccc(Cl)cc1 [Example 69, 4-chloro-N-[(1S,2S)-1-(hydroxymethyl)-2,3-dimethylbutyl]benzenesulfonamide] | 1 (1=non-toxic) | 3.1 | – | – |
| CCCCCC[C@@H](C(C)C)[C@@H](CO)NS(=O)(=O)c1ccc(Cl)cc1 [Example 70, 4-chloro-N-[(1S,2S)-1-(hydroxymethyl)-2-isopropyloctyl]benzenesulfonamide] | 1 (1=non-toxic) | 2 | – | – |
| COc1ccc([C@@H](C)[C@@H](CO)NS(=O)(=O)c2ccc(Br)cc2)cc1 [Example 71, 4-bromo-N-[(1S,2R)-1-(hydroxymethyl)-2-(4-methoxyphenyl)propyl]benzenesulfonamide] | 1 (1=non-toxic) | 1.9 | – | – |
| CCCCCC[C@@H](C)[C@@H](CO)NS(=O)(=O)c1ccc(Br)cc1 [Example 72, 4-bromo-N-[(1S,2R)-1-(hydroxymethyl)-2-methyloctyl] benzenesulfonamide] | 1 (1=non-toxic) | – | 3.2 | 76.4% |
| CC[C@H](CC(C)C)[C@@H](CO)NS(=O)(=O)c1ccc(Br)cc1 [Example 73, 4-bromo-N-[(1S,2R)-2-ethyl-1-(hydroxymethyl)-4-methylpentyl]benzenesulfonamide] | 1 (1=non-toxic) | 5.4 | – | – |
| CC[C@H](c1ccc(OC)cc1)[C@@H](CO)NS(=O)(=O)c1ccc(Br)cc1 [Example 74, 4-bromo-N-[(1S,2R)-1-(hydroxymethyl)-2-(4-methoxyphenyl)butyl]benzenesulfonamide] | 1 (1=non-toxic) | 2.5 | – | – |
| CCCCCC[C@@H](CC)[C@@H](CO)NS(=O)(=O)c1ccc(Br)cc1 [Example 75, 4-bromo-N-[(1S,2R)-2-ethyl-1-(hydroxymethyl)octyl]benzenesulfonamide] | 1 (1=non-toxic) | 4.8 | – | – |
| CCC[C@H](C)[C@@H](CO)NS(=O)(=O)c1ccc(Br)cc1 [Example 76, 4-bromo-N-[(1S,2S)-1-(hydroxymethyl)-2-methylpentyl]benzenesulfonamide] | 1 (1=non-toxic) | 5.8 | – | – |
| CCC[C@H](CC)[C@@H](CO)NS(=O)(=O)c1ccc(Br)cc1 [Example 77, 4-bromo-N-[(1S,2S)-2-ethyl-1-(hydroxymethyl)pentyl]benzenesulfonamide] | 1 (1=non-toxic) | 5.9 | – | – |
| CCC[C@H](CC(C)C)[C@@H](CO)NS(=O)(=O)c1ccc(Br)cc1 [Example 78, 4-bromo-N-[(1S,2R)-1-(hydroxymethyl)-4-methyl-2-propylpentyl]benzenesulfonamide] | 1 (1=non-toxic) | 4.4 | – | – |
| CCCCCC[C@@H](CCC)[C@@H](CO)NS(=O)(=O)c1ccc(Br)cc1 [Example 79, 4-bromo-N-[(1S,2R)-1-(hydroxymethyl)-2-propyloctyl]benzenesulfonamide] | 1 (1=non-toxic) | 1.5 | – | – |
| CCCCC[C@H](C)[C@@H](CO)NS(=O)(=O)c1ccc(Br)cc1 [Example 80, 4-bromo-N-[(1S,2S)-1-(hydroxymethyl)-2-methylheptyl]benzenesulfonamide] | 1 (1=non-toxic) | 3.9 | – | – |
| CCCCC[C@H](CC)[C@@H](CO)NS(=O)(=O)c1ccc(Br)cc1 [Example 81, 4-bromo-N-[(1S,2S)-2-ethyl-1-(hydroxymethyl)heptyl]benzenesulfonamide] | 1 (1=non-toxic) | 5 | – | – |
| C[C@@H](c1ccccc1)[C@@H](CO)NS(=O)(=O)c1ccc(Br)cc1 [Example 82, 4-bromo-N-[(1S,2S)-1-(hydroxymethyl)-2-phenylpropyl]benzenesulfonamide] | 1 (1=non-toxic) | 2.6 | – | – |
| CC[C@@H](c1ccccc1)[C@@H](CO)NS(=O)(=O)c1ccc(Br)cc1 [Example 83, 4-bromo-N-[(1S,2S)-1-(hydroxymethyl)-2-phenylbutyl]benzenesulfonamide] | 1 (1=non-toxic) | 3.4 | – | – |
| C[C@@H](c1ccco1)[C@@H](CO)NS(=O)(=O)c1ccc(Br)cc1 [Example 84, 4-bromo-N-[(1S,2R)-2-(2-furyl)-1-(hydroxymethyl)propyl]benzenesulfonamide] | 1 (1=non-toxic) | 3.4 | – | – |
| CC[C@@H](c1ccco1)[C@@H](CO)NS(=O)(=O)c1ccc(Br)cc1 [Example 85, 4-bromo-N-[(1S,2R)-2-(2-furyl)-1-(hydroxymethyl)butyl]benzenesulfonamide] | 1 (1=non-toxic) | 3.4 | – | – |
| CC(C)C[C@@H](c1ccco1)[C@@H](CO)NS(=O)(=O)c1ccc(Br)cc1 [Example 86, 4-bromo-N-[(1S,2R)-2-(2-furyl)-1-(hydroxymethyl)-4-methylpentyl]benzenesulfonamide] | 1 (1=non-toxic) | 1.6 | – | – |
| CC(C)C[C@@H](C(C)C)[C@@H](CO)NS(=O)(=O)c1ccc(Br)cc1 [Example 87, 4-bromo-N-[(1S,2S)-1-(hydroxymethyl)-2-isopropyl-4-methylpentyl]benzenesulfonamide] | 1 (1=non-toxic) | 8.8 | – | – |
| CCCCCC[C@H](CC)[C@@H](CO)NS(=O)(=O)c1ccc(Cl)cc1 [Example 88, 4-Chloro-N-[(1 S,2S)-2-ethyl-1-(hydroxymethyl)octyl]benzenesulfonamide] | 1 (1=non-toxic) | 6.4 | – | – |
| CCCCCC[C@@H](CC)[C@@H](CO)NS(=O)(=O)c1ccc(Cl)cc1 [Example 89, 4-chloro-N-[(1S,2R)-2-ethyl-1-(hydroxymethyl)octyl] benzenesulfonamide] | 1 (1=non-toxic) | – | 22.4 | 97.9% |
